What follows are compounds tested against CDK2 (UniProt P24941) (assay: Enzyme Assay).

Q: How did the IC50 turn out when `CN1CCC(c2c(O)cc(O)c3c2O/C(=C\c2ccccc2)C3=O)CC1` was run?
A: The IC50 was 1280 nM.

Q: Which IC50 does the source give for `CN1CCC(c2c(O)cc(O)c3c2O/C(=C\c2ccc([N+](=O)[O-])cc2)C3=O)CC1` here?
A: Its IC50 is 310 nM.

Q: With `O=C1Nc2ccccc2C1=NNc1ccccc1` as the compound, how does the IC50 read?
A: The IC50 was > 10000 nM.

Q: How did the IC50 turn out when `CN(C)S(=O)(=O)c1ccc(NN=C2C(=O)Nc3ccc(O)cc32)cc1` was run?
A: Its IC50 is 10 nM.

Q: With `CN1CCC(c2c(O)cc(O)c3c2O/C(=C\c2ccc(S(N)(=O)=O)cc2)C3=O)CC1` as the compound, how does the IC50 read?
A: The IC50 was 30 nM.

Q: With `COc1ccc2c(c1)C(=NNc1ccccc1)C(=O)N2` as the compound, how does the IC50 read?
A: Its IC50 is > 10000 nM.

Q: For `O=C1Nc2ccc(Br)cc2C1=NNc1ccccc1`, which IC50 is on record?
A: Its IC50 is > 10000 nM.

Q: `CN1CCC(c2c(O)cc(O)c3c2O/C(=C\c2ccccc2Cl)C3=O)CC1` was tested. Which IC50 did it give?
A: The IC50 was 3970 nM.

These compounds were tested against MAPK14 (UniProt Q16539) (assay: Inhibition of MAPK14 Kinase Activity).
MAPK14, sequence (Q16539 whole entry, looked up): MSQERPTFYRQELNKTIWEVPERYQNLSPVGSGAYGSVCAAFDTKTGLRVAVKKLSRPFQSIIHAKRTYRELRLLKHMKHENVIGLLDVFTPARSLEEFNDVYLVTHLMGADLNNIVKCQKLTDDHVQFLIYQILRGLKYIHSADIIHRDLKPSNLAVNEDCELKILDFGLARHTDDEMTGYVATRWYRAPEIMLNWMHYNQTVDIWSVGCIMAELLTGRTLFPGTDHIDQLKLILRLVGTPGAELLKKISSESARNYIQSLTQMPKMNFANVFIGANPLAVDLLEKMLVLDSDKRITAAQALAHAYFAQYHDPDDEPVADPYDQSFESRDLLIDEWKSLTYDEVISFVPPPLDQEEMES

Q: `CC1(c2cc(NC(=O)Nc3ccccc3)n(-c3ccccc3)n2)CCCCC1` was tested. Which Kd did it give?
A: The Kd was 22 nM.

Q: Which Kd does the source give for `CC(C)(C)c1cc(NC(=O)Nc2ccccc2)n(-c2ccc(N)cc2)n1` here?
A: The Kd was 7 nM.

Q: `CC(C)(C)c1cc(NC(=O)Nc2ccncc2)n(-c2ccccc2)n1` was tested. Which Kd did it give?
A: Its Kd is 1200 nM.

Q: For `COc1cccc(-n2nc(C(C)(C)C)cc2NC(=O)Nc2ccccc2)c1`, which Kd is on record?
A: The Kd was 19 nM.

Q: How did the Kd turn out when `CC(C)(C)c1cc(NC(=O)Nc2ccccc2)n(-c2ccc3ccccc3c2)n1` was run?
A: Its Kd is 8 nM.

Q: For `CC(C)(C)c1cc(NC(=O)Nc2cccc(N)c2)n(-c2ccccc2)n1`, which Kd is on record?
A: The Kd was 100 nM.

Q: With `Cc1ccc(-n2nc(C(C)(C)C)cc2NC(=O)Nc2ccccc2F)cc1` as the compound, how does the Kd read?
A: Its Kd is 14 nM.

Q: How did the Kd turn out when `Cc1ccc(-n2nc(C(C)(C)C)cc2NC(=O)Nc2ccccc2)cc1C` was run?
A: Its Kd is 4 nM.

Q: How did the Kd turn out when `CCC(C)(C)c1cc(NC(=O)Nc2ccccc2)n(-c2ccccc2)n1` was run?
A: Its Kd is 12 nM.

Q: With `O=C(Nc1ccccc1)Nc1cc(C2CCCCC2)nn1-c1ccccc1` as the compound, how does the Kd read?
A: The Kd was > 400 nM.

Q: With `CC(C)(C)c1cc(NC(=O)Nc2ccccc2)n(-c2ccncc2)n1` as the compound, how does the Kd read?
A: The Kd was 21 nM.

Q: For `CC(C)(C)c1cc(NC(=O)Nc2cccnc2)n(-c2ccccc2)n1`, which Kd is on record?
A: Its Kd is 420 nM.

Q: Which Kd does the source give for `Cc1ccccc1-n1nc(C(C)(C)C)cc1NC(=O)Nc1ccccc1` here?
A: Its Kd is 200 nM.

Q: With `CC(C)(C)c1cc(NC(=O)NC2Cc3ccccc3C2)n(-c2ccccc2)n1` as the compound, how does the Kd read?
A: Its Kd is 14 nM.

Q: `CC(C)(C)c1cc(NC(=O)Nc2cccc3ccccc23)n(-c2ccccc2)n1` was tested. Which Kd did it give?
A: Its Kd is 5 nM.

Q: `CC1(c2cc(NC(=O)Nc3ccccc3)n(-c3ccccc3)n2)CCOCC1` was tested. Which Kd did it give?
A: The Kd was 280 nM.

Q: `Cc1cccc(-n2nc(C(C)(C)C)cc2NC(=O)Nc2ccccc2)c1` was tested. Which Kd did it give?
A: The Kd was 2 nM.

Q: With `Cc1cc(NC(=O)Nc2ccccc2)n(-c2ccccc2)n1` as the compound, how does the Kd read?
A: The Kd was > 7000 nM.

Q: How did the Kd turn out when `CC(C)(C)c1cc(NC(=O)Nc2ccccc2)n(C2CCCCC2)n1` was run?
A: The Kd was 500 nM.

Q: For `COCC(C)(C)c1cc(NC(=O)Nc2ccccc2)n(-c2ccccc2)n1`, which Kd is on record?
A: Its Kd is 1400 nM.

Q: `CC(C)c1cc(NC(=O)Nc2ccccc2)n(-c2ccccc2)n1` was tested. Which Kd did it give?
A: The Kd was 330 nM.

Q: How did the Kd turn out when `CC(C)(C)c1cc(NC(=O)NCCc2ccccc2)n(-c2ccccc2)n1` was run?
A: Its Kd is 260 nM.

Q: Which Kd does the source give for `Cc1ccc(-n2nc(C(C)(C)C)cc2NC(=O)Nc2ccccc2)cc1` here?
A: The Kd was 3 nM.

Q: Which Kd does the source give for `Cc1ccc(-n2nc(C(C)(C)C)cc2NC(=O)Nc2cccc3ccccc23)cc1` here?
A: The Kd was 1 nM.

Q: `CC(C)(C)c1cc(NC(=O)Nc2ccc(Cl)cc2)n(-c2ccccc2)n1` was tested. Which Kd did it give?
A: Its Kd is 8 nM.

Q: How did the Kd turn out when `CC(C)(C)c1cc(NC(=O)Nc2ccc(N)cc2)n(-c2ccccc2)n1` was run?
A: Its Kd is 318 nM.

Q: For `CC(C)(C)c1cc(NC(=O)NC2CCCCC2)n(-c2ccccc2)n1`, which Kd is on record?
A: The Kd was 130 nM.

Q: `COc1ccc(-n2nc(C(C)(C)C)cc2NC(=O)Nc2ccccc2)cc1` was tested. Which Kd did it give?
A: The Kd was 31 nM.

Q: `CC(C)(C)c1cc(NC(=O)Nc2ccccc2)n(-c2ccccc2)n1` was tested. Which Kd did it give?
A: The Kd was 13 nM.

Q: How did the Kd turn out when `Cc1cccc(NC(=O)Nc2cc(C(C)(C)C)nn2-c2ccccc2)c1C` was run?
A: Its Kd is 3 nM.

Q: How did the Kd turn out when `CC(C)(c1ccccc1)c1cc(NC(=O)Nc2ccccc2)n(-c2ccccc2)n1` was run?
A: Its Kd is 760 nM.

Q: For `CC(C)(C)c1cc(NC(N)=O)n(-c2ccccc2)n1`, which Kd is on record?
A: Its Kd is > 7000 nM.

Q: With `CC(C)(C)c1cc(NC(=O)Nc2ccccn2)n(-c2ccccc2)n1` as the compound, how does the Kd read?
A: Its Kd is 400 nM.

Q: How did the Kd turn out when `CC(C)(C)c1cc(NC(=O)NCc2ccccc2)n(-c2ccccc2)n1` was run?
A: The Kd was 47 nM.
